According to patent US10780094B2, “Use of carbonic anhydrase inhibitors for treatment of neurological and psychiatric disorders” (New York University, priority 2016, dated 2020):

Assays:
Format in all cases: cell-based, human
[1] = tested on: mitochondria isolated from glial cells; test: Mitochondrial H2O2 production (Amplex Red) after Aβ challenge
Method: Production of H2O2 from isolated mitochondria was measured using Amplex Red Hydrogen Peroxide/Peroxidase Assay (Life Technologies). Cells were treated with Aβ peptides, in the presence or absence of MTZ. After 16 hours of treatment, the mitochondrial fraction was separated from nuclear and cytoplasmic fractions as previously described (Fossati et al., 2013). Protein concentration in the mitochondrial fraction was measured by BCA assay (Thermo Scientific, Rockford, Ill.), in order to include the same amount of mitochondria in each sample. Functional mitochondrial fractions were distributed in a 96 well plate with Reaction Buffer and Amplex Red solution following the manufacturer's specifications. The plate was incubated in the dark at room temperature for 30 minutes before colorimetric evaluation of the Amplex Red reaction at 560 nm.

SH-SY5Y cells = test: Cellular ROS (CellROX, DCFDA); settings: Aβ42 in the presence or absence of MTZ; 24 hours
Method: For the last 30 minutes, the cells were incubated in the experimental medium at 37° C. with 5 μM CellROX Deep Red (Life Technologies) and 1 μg/ml Hoechst Stain (Immunochemistry Technologies, Bloomington, Minn.), as described by the manufacturer, followed by washes. Fluorescence was measured using a FlexStation 3 Multi-Mode Microplate Reader (Molecular Devices, Sunnyvale, Calif.).
10.000 cells of either SH-SY5Y or D3 cells were plated on 96-wells plates. The day after, cells were treated with the peptides and/or the drugs for the established experimental times. CellROX reagent was then added, directly, to the growing media, at a final concentration of 5 μM. 10 μg/mL of Hoescht 333258 was also added to the medium containing the CellROX reagent, in order to dye cell nuclei. Cells were incubated with both CellROX and Hoescht 333258, at 37° C., for 30 min., just before the ending time-point of the treatment. After 30 min., the medium was removed and cells were washed once in PBS 1× at room temperature. […]
Cells were plated on 96-wells microplate fluorescence microtiter (ThermoFisher, Waltham, Mass., US), and treated with peptides and/or drugs on phenol red free medium, with no serum in the case of the SH-SY5Y cells and 1% serum on the D3. […] Fluorescence was measured using a FlexStation (Molecular devices, Sunnyvalem Calif., US).

[2] = tested on: caspase 3/7 in neuronal SHSY-5Y cells; test: Active caspase 3 staining and Caspase-Glo 3/7 activity after Aβ challenge; settings: Aβ co-incubated with MTZ at both concentrations (100, 300 μM); 24 hours
Method: (§1) Caspase 9 and caspase 3/7 activation was measured by luminescent assays (Caspase-Glo 9 and caspase-Glo 3/7, Promega, Madison, Wis.), in cells treated with the Aβ peptides in DMEM without FBS. Briefly, 10,000 cells/well were plated in 96 wells plates and incubated for 24 hours with the freshly solubilized Aβ peptides. Caspase-Glo reagent was added to the cell cultures resulting in cell lysis, followed by caspase cleavage of the substrate and generation of a luminescent signal produced by the luciferase reaction. After 40 minutes incubation, the amount of caspase activity was evaluated in a plate-reading luminometer (Synergy HT Multi-Mode Microplate Reader, Biotek, Winooski, Vt.) as described in (Fossati et al., 2012b). To inhibit non-specific background activity, the proteasome inhibitor MG-132 was added to the Caspase-Glo reagent before the experiment as indicated by the manufacturer. In all cases results are expressed as fold-change compared to untreated control cells.
(§2) SHSY-5Y and Glioma cells were plated on chamber slides as above. Slides were pre-coated with Poly-D-Lysine 30 μg/ml for 2 hours for SHSY-5Y cells. […]

[3] = tested on: caspase 3/7 in glial cells; test: as above; settings: Aβ co-incubated with MTZ at both concentrations (100, 300 μM); 24 hours
Method: as §1, §2

CC(=O)/N=c1/sc(S(N)(=O)=O)nn1C [MTZ, methazolamide]
Aβ-induced increase in H2O2 production by isolated mitochondria ([1]; Example 1, Aβ with MTZ): completely reverted | H2O2 production, drug alone ([1]; MTZ alone, untreated cells): did not have any effect | levels of cellular ROS (CellROX) (SH-SY5Y cells): did not significantly change | active-caspase 3 staining and activity of caspases 3/7 [2]: greatly suppressed | active-caspase 3 staining and activity of caspases 3/7 [3]: greatly suppressed
